The values below are quoted from earlier work in patent US9289389B2, “Method for producing matrix-type pharmaceutical solid preparation” (OTSUKA PHARMACEUTICAL CO., LTD., priority 2007, dated 2016).

For the first data set the following is noted: water 20° C.
On to `OC[C@@H](O)[C@H](O)[C@@H](O)CO` [xylitol], for which the “amount of water necessary to dissolve 1 g” value is on record as 1.6 g.

As to `OC[C@H]1O[C@H](O[C@H]2[C@H](O)[C@@H](O)C(O)O[C@@H]2CO)[C@H](O)[C@@H](O)[C@@H]1O` (mixture of isomers) [maltose monohydrate], the “amount of water necessary to dissolve 1 g” value was 1.2 g.

In the case of `OC[C@@H](O)[C@@H](O[C@@H]1O[C@H](CO)[C@H](O)[C@H](O)[C@H]1O)[C@H](O)[C@@H](O)CO` [lactitol], the “amount of water necessary to dissolve 1 g” value was 1.8 g.

On to `OC[C@H]1O[C@H](O[C@H]2O[C@H](CO)[C@@H](O)[C@H](O)[C@H]2O)[C@H](O)[C@@H](O)[C@@H]1O` [trehalose dihydrate], for which the “amount of water necessary to dissolve 1 g” value was 1.2 g.

The same data set, now with this note: water 25° C.
`OC[C@@H](O)[C@@H](O)CO` [erythritol]: the “amount of water necessary to dissolve 1 g” value was 3.3 g.

`OC[C@@H](O)[C@@H](O)[C@H](O)[C@@H](O)CO` [sorbitol]: the “amount of water necessary to dissolve 1 g” value was 0.5 mL (g).

The data set is the same for the next values; noted with them: water temperature not stated.
In the case of `OC[C@H]1O[C@@](CO)(O[C@H]2O[C@H](CO)[C@@H](O)[C@H](O)[C@H]2O)[C@@H](O)[C@@H]1O` [sucrose], the “amount of water necessary to dissolve 1 g of sugar and/or sugar alcohol” value (“amount … of sugar and/or sugar alcohol” for short) is given as 0.5 g.

`O=C(CO)[C@@H](O)[C@H](O)[C@H](O)CO` [fructose]: the “amount … of sugar and/or sugar alcohol” value is 0.3 g.

`OC[C@@H](O)[C@@H](O[C@H]1O[C@H](CO)[C@@H](O)[C@H](O)[C@H]1O)[C@H](O)[C@@H](O)CO` [maltitol]: the “amount … of sugar and/or sugar alcohol” value is “easily soluble”.
